Assay results: ChEMBL document CHEMBL3217660, “Design, synthesis and antiproliferative activity of urocanic-chalcone hybrid derivatives” (Medchemcomm, 2011)

Experiments:
HT-29 [1] = experiment: Antiproliferative activity against human HT-29 cells assessed as inhibition of cell proliferation after 3 days by MTS assay; type: functional, cell-based; details: HT-29, 72 h
MDA-MB-231 = experiment: Antiproliferative activity against human MDA-MB-231 cells assessed as inhibition of cell proliferation after 3 days by MTS assay; type: functional, cell-based; details: MDA-MB-231, 72 h
[2] = Antiproliferative activity against human FEK4 cells assessed as inhibition of cell proliferation after 3 days by MTS assay; type: cell-based; details: FEK4, 72 h
LNCaP = experiment: Antiproliferative activity against human LNCAP cells assessed as inhibition of cell proliferation after 3 days by MTS assay; type: functional, cell-based; details: 72 h
HT-29 [3] = experiment: Inhibition of human HT-29 cell proliferation; type: functional, cell-based
A2780 = experiment: Inhibition of human A2780 cell proliferation; type: functional, cell-based
HCT-116 = experiment: Inhibition of human HCT116 cell proliferation; type: functional, cell-based
Tubulin (Homo sapiens) = Tubulin (Homo sapiens) (UniProt P68371+Q9H4B7+P0DPH7+P68366+Q13509+Q71U36+P04350+Q3ZCM7+P07437+P68363+Q9BQE3+Q6PEY2+Q13885+Q9BVA1+Q9BUF5); experiment: Induction of tubulin (unknown origin) polymerization; type: protein-complex assay
K562 = experiment: Inhibition of human K562 cell proliferation; type: functional, cell-based

Structure (SMILES)	IC50 (HT-29 [1])	IC50 (MDA-MB-231)	IC50 (LNCaP)	IC50 (HT-29 [3])	IC50 (A2780)	IC50 (HCT-116)	ED90 (Tubulin (Homo sapiens))	IC50 (K562)	IC50 [2]
COc1cc(C(=O)/C=C/c2cnc[nH]2)cc(OC)c1OC	19.5 µM	22.9 µM	48.1 µM	–	–	–	–	–	53.2 µM
COc1cc(C(=O)CCc2cnc[nH]2)cc(OC)c1OC	> 500 µM	223 µM	368 µM	–	–	–	–	–	> 500 µM
COc1ccc(C(=O)/C=C/c2cccn2C)cc1OC	60.4 µM	42.8 µM	56.3 µM	–	–	–	–	–	162 µM
COc1ccc(C(=O)/C=C/c2cnc[nH]2)cc1OC	37.9 µM	18.2 µM	46.2 µM	–	–	–	–	–	84.2 µM
COc1ccc(C(=O)/C=C/c2cccn2C)cc1	61.8 µM	53.5 µM	75.5 µM	–	–	–	–	–	188 µM
Cn1cnc(/C=C/C(=O)O[C@H]2C/C=C\CC[C@@H]3C=C[C@H]2O3)c1	–	–	–	–	–	–	6 µM	–	–
COc1ccc(C(=O)/C=C/c2ccc[nH]2)cc1OC	86 µM	102 µM	105 µM	–	–	–	–	–	135 µM
O[C@H]1C/C=C\CC[C@@H]2C=C[C@H]1O2	–	–	–	–	–	–	3 µM	–	–
COc1cc(C(=O)/C=C/c2ccc[nH]2)cc(OC)c1OC	43 µM	49.9 µM	59.9 µM	–	–	–	–	–	156 µM
COc1ccc(C(=O)/C=C/c2ccc[nH]2)cc1	> 500 µM	> 500 µM	> 500 µM	–	–	–	–	–	> 500 µM
COc1ccc(O[C@@H]2/C=C\CC(O)C[C@@H]3[C@@H](C(C)C)CC=C(C)[C@@H]3C[C@@H]2OC(=O)/C=C/c2cn(C)cn2)cc1 (single isomer, unassigned)	–	–	–	–	1.9 µM	0.9 µM	0.5 µM	2.3 µM	–

Now from value to compound, other results behind:

IC50 (HT-29 [1])	IC50 (MDA-MB-231)	IC50 (LNCaP)	IC50 (HT-29 [3])	IC50 (A2780)	IC50 (HCT-116)	ED90 (Tubulin (Homo sapiens))	IC50 (K562)	Structure (SMILES)	IC50 [2]
5 µM	–	–	5 µM	4 µM	4 µM	1.8 µM	–	CC1=CC[C@H](C(C)C)[C@H]2C[C@H](OC(=O)C(C)(C)C)[C@@H](O)/C=C\C[C@@H](OC(=O)/C=C/c3cn(C)cn3)C[C@@H]12	–
4.2 µM	4.9 µM	11 µM	–	–	–	–	–	COc1cc(C(=O)/C=C/c2nccn2C)cc(OC)c1OC	17.5 µM
5 µM	4.9 µM	17.1 µM	–	–	–	–	–	COc1cc(C(=O)/C=C/c2ncc[nH]2)cc(OC)c1OC	28.6 µM
0.164 µM	0.12 µM	0.154 µM	–	–	–	–	–	COc1cccc2c1C(=O)c1c(O)c3c(c(O)c1C2=O)C[C@@](O)(C(=O)CO)C[C@@H]3O[C@H]1C[C@H](N)[C@H](O)[C@H](C)O1 [DOXORUBICIN]	–
< 0.005 µM	–	–	–	–	–	0.5 µM	–	CC(=O)O[C@H]1C(=O)[C@@]2(C)[C@H]([C@H](OC(=O)c3ccccc3)[C@]3(O)C[C@H](OC(=O)[C@H](O)[C@@H](NC(=O)c4ccccc4)c4ccccc4)C(C)=C1C3(C)C)[C@]1(OC(C)=O)CO[C@@H]1C[C@@H]2O [PACLITAXEL]	–
12.5 µM	18 µM	69.5 µM	–	–	–	–	–	COc1cc(C(=O)/C=C/c2cccn2C)cc(OC)c1OC	118 µM
2.9 µM	4.8 µM	48.4 µM	–	–	–	–	–	COc1cc(C(=O)/C=C/c2cn(C)cn2)cc(OC)c1OC	85 µM
15.9 µM	16.9 µM	30.6 µM	–	–	–	–	–	COc1cc(C(=O)/C=C/c2cncn2C)cc(OC)c1OC	49.9 µM
